# Data as given in patent US20240246942A1, “KINASE INHIBITORS FOR THE TREATMENT OF NEURODEGENERATIVE DISEASES” (priority 2020, published 2024).
# Experiments:
# JNK3α1 = JNK3α1 (Homo sapiens, UniProt P53779); assay type: biochemical; settings: mean of ≥2 experiments; read-out: Biochemical inhibition IC50 JNK3
# Procedure: (§1) A 10-point titration of all compounds was carried out in 3-fold dilutions from 10 μM to 0.5 nM.
# JNK1 = JNK1 (Homo sapiens, UniProt P45983); experiment: JNK1 homogeneous time-resolved fluorescence enzyme inhibition assay; assay type: biochemical; settings: for R: ratio of IC50 values of JNK1 over JNK3: isoform selectivity against JNK1; for IC50: mean of ≥2 experiments, read-out: Biochemical inhibition IC50 JNK1
# Procedure: as §1
# JNK2 = JNK2 (Homo sapiens, UniProt P45984); experiment: JNK2 homogeneous time-resolved fluorescence enzyme inhibition assay; assay type: biochemical; settings: for R: ratio of IC50 values of JNK2 over JNK3: isoform selectivity against JNK2; for IC50: mean of ≥2 experiments, read-out: Biochemical inhibition IC50 JNK2
# Procedure: as §1
# p38α = p38α (Homo sapiens, UniProt Q16539); experiment: p38 enzyme inhibition assay; settings: mean of ≥2 experiments; read-out: Biochemical inhibition IC50 p38α
# SHSY5Y cells = experiment: MTT cytotoxicity assay; assay type: cell-based; set-up: dose or concentration left out as unconfirmed; settings: 48 hrs, average of ≥2 experiments;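 further: compounds tested at 10 µM final concentration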
# Procedure: A day before the assay, cells were plated at 50,000/well in 96 well plates in the culture medium. […] After the incubation, cells were subjected to MTT assay using Vybrant MTT Cell Proliferation kit as directed by the vendor (Life Technologies).
# CYP1A2 = target: T1, CYP1A2 (Homo sapiens, UniProt P05177); experiment: P450 cocktail inhibition assay, CYP1A2; assay type: in vitro ADME; settings: at 10 μM
# T1 sequence (P05177 1-516): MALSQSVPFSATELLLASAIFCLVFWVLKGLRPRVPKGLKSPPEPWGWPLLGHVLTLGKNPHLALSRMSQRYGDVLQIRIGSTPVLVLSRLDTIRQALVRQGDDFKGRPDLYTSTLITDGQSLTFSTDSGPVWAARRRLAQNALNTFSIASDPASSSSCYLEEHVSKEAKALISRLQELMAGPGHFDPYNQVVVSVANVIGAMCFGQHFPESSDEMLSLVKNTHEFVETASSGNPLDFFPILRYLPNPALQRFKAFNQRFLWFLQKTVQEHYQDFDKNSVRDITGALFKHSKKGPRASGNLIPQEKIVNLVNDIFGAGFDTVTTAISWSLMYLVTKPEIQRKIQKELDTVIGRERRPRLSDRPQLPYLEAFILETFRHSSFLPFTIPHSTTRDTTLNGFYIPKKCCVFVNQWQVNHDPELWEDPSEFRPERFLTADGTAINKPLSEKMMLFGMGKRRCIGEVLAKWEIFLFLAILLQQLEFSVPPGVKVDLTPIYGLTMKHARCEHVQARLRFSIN
# Procedure: (§2) P450s inhibition for four major isoforms are evaluated using a cocktail inhibition assay where the metabolism of specific marker substrate (CYP1A2 phenaceten […] to acetaminophen); CYP2C9, tolbutamide hydroxylation to hydrocytolbutamide; CYP2D6, bufuralol hydroxylation to […]; and CYP3A4, midazolam hydroxylation to 1′-Hydroxymidazolam) in the presence or absence of 10 TM probe compound is evaluated. The concentration of each marker substrate is approximately its Km. […] Specific inhibitors for each isoform are included in each run to validate the system.
# CYP2C9 = CYP2C9 (Homo sapiens, UniProt P11712); experiment: P450 cocktail inhibition assay, CYP2C9; assay type: in vitro ADME; settings: at 10 μM
# Procedure: as §2
# CYP2D6 = CYP2D6 (Homo sapiens, UniProt P10635); experiment: P450 cocktail inhibition assay, CYP2D6; assay type: in vitro ADME; settings: at 10 μM
# Procedure: as §2
# CYP3A4 = CYP3A4 (Homo sapiens, UniProt P08684); experiment: P450 cocktail inhibition assay, CYP3A4; assay type: in vitro ADME; settings: at 10 μM
# Procedure: as §2
# [1] = Microsomal stability, human; assay type: in vitro ADME; settings: human microsomes
# [2] = Microsomal stability, mouse; assay type: in vitro ADME; settings: mouse microsomes
# Chain of JNK1 (P45983 whole entry, canonical isoform): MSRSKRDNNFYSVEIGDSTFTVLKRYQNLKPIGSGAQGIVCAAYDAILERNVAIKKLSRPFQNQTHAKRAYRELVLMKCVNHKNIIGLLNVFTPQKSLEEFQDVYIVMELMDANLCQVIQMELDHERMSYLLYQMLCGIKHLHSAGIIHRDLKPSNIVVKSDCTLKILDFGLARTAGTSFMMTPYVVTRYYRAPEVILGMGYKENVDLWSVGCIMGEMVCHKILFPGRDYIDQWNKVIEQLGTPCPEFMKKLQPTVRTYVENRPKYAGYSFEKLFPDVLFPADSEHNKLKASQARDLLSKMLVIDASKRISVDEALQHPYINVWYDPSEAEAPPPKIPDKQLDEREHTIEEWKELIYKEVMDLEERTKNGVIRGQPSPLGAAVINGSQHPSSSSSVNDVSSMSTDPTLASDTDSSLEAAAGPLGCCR
# Chain of p38α (Q16539 whole entry): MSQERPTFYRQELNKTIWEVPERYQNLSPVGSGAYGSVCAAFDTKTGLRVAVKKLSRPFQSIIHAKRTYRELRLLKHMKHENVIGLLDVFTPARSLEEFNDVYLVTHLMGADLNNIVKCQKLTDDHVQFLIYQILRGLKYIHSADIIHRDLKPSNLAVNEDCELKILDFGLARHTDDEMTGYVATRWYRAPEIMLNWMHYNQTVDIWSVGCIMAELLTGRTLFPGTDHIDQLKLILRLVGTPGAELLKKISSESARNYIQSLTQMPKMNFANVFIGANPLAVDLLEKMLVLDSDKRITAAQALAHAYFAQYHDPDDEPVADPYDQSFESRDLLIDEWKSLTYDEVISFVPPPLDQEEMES
# Chain of CYP3A4 (P08684 whole entry): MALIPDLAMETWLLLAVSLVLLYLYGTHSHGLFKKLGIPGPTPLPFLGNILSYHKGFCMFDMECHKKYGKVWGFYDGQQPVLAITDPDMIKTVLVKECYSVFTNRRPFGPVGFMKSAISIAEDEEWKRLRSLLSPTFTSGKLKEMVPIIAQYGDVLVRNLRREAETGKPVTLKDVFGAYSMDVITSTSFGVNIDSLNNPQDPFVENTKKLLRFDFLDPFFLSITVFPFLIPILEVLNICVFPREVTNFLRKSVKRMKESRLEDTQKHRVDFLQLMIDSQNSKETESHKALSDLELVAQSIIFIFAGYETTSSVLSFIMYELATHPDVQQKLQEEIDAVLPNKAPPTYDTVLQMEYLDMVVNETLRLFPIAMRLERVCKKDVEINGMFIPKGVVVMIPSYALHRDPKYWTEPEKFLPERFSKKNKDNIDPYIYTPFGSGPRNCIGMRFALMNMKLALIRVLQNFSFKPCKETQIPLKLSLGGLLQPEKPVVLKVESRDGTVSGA
# Chain of CYP2D6 (P10635 whole entry): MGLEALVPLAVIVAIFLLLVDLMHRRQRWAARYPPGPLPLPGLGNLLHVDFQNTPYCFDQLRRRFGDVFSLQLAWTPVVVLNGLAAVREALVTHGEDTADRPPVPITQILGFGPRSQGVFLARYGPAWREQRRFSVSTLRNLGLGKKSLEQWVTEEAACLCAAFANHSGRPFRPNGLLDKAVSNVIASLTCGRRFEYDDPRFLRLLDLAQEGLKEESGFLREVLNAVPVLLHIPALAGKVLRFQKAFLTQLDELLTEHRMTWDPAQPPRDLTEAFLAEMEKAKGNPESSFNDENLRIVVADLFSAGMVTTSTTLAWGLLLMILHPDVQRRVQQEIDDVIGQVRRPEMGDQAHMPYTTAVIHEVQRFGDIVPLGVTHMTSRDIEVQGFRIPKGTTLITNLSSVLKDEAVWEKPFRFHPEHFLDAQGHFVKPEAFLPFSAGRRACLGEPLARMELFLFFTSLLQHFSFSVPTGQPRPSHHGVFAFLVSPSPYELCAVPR
# Chain of JNK2 (P45984 whole entry, canonical isoform): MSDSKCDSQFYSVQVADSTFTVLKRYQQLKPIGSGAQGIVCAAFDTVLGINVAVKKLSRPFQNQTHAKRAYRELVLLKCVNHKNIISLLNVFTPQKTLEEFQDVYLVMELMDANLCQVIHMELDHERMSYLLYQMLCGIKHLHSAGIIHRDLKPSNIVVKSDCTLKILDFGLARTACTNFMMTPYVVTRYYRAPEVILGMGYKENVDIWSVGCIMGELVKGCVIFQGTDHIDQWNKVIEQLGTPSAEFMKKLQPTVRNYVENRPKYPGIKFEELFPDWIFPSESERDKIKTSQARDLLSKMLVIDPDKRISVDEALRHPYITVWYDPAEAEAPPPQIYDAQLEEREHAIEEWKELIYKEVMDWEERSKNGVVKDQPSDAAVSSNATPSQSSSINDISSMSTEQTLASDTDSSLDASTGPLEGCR
# Chain of CYP2C9 (P11712 whole entry): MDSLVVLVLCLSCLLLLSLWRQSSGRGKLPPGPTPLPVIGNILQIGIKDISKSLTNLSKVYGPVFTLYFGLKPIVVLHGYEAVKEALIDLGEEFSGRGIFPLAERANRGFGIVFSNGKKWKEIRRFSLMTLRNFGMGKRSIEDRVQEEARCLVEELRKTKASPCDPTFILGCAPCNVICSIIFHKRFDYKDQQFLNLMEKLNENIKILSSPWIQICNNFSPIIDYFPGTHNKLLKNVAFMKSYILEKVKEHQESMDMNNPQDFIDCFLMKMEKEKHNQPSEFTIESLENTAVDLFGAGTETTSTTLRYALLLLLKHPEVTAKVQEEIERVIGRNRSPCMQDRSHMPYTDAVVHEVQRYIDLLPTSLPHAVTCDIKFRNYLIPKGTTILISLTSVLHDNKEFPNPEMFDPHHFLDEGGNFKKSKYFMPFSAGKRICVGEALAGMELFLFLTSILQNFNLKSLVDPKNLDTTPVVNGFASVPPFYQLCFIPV
# Chain of JNK3α1 (P53779 1-422 isoform P53779-2): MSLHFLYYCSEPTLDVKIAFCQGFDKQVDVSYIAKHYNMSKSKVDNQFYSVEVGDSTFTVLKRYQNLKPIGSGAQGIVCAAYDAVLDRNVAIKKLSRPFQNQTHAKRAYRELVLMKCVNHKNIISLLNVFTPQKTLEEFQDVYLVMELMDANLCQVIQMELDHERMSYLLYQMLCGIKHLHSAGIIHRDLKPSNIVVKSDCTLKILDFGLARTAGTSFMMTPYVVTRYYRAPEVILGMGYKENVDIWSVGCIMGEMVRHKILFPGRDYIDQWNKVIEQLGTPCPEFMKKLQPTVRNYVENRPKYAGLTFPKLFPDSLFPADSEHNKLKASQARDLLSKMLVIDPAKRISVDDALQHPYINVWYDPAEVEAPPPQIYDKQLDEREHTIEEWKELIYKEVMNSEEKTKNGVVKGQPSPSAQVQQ
Compound,IC50 (JNK3α1) [nM],R: ratio of IC50 values of JNK1 over JNK3 (JNK1),IC50 (JNK1) [nM],isoform selectivity against JNK2 vs JNK3 (JNK2),R: ratio of IC50 values of JNK2 over JNK3 (JNK2),IC50 (JNK2) [nM],IC50 (p38α) [nM],MTT cell viability (SHSY5Y cells) [%],CYP-450 % inh. 1A2 (CYP1A2) [%],CYP-450 % inh. 2C9 (CYP2C9) [%],CYP-450 % inh. 2D6 (CYP2D6) [%],CYP-450 % inh. 3A4 (CYP3A4) [%],Mic. stability t1/2 Human [1] [min],Mic. stability t1/2 Mouse [2] [min]
"O=C(Nc1cnn(-c2csc(C(=O)NC3CC3)c2)c1)Nc1ccccc1Cl [Compound 8, 4-(4-(3-(2-chlorophenyl)ureido)-1H-pyrazol-1-yl)-N-cyclopropylthiophene-2-carboxamide]",80,93,7400,around 40 folds,40,3200,> 20000,103,−2,−4,−29,−45,49,35
"CN1CCC(NC(=O)c2cc(-n3cc(NC(=O)Nc4ccccc4Cl)cn3)cs2)CC1 [Compound 14, 4-(4-(3-(2-chlorophenyl)ureido)-1H-pyrazol-1-yl)-N-(1-methylpiperidin-4-yl)thiophene-2-carboxamide]",84,,4200,,33,2770,> 20000,89,−6,−19,−5,−34,92,15
"O=C(Nc1cnn(-c2csc(C(=O)NC3CCOCC3)c2)c1)Nc1ccccc1Cl [Compound 15, 4-(4-(3-(2-chlorophenyl)ureido)-1H-pyrazol-1-yl)-N-(tetrahydro-2H-pyran-4-yl)thiophene-2-carboxamide]",50,38,1900,,21,1050,> 20000,97,32,7,0,−35,32,16
"O=C(Nc1cnn(-c2csc(C(=O)NCC3CCOCC3)c2)c1)Nc1ccccc1Cl [Compound 24, 4-(4-(3-(2-chlorophenyl)ureido)-1H-pyrazol-1-yl)-N-((tetrahydro-2H-pyran-4-yl)methyl)thiophene-2-carboxamide]",24,63,1500,,34,810,> 20000,95,36,64,32,21,8,15
